Earlier results in patent publication US10610595B2, “Stabilized pharmaceutical formulations of insulin analogues and/or insulin derivatives” (SANOFI, priority 2014, dated 2020).

Test system: blood glucose level
Settings: for amount corresponding to 100 U: product information

| Substance | amount corresponding to 100 U [mg] | amount corresponding to 1 U (Lill, Pharmazie in unserer Zeit 2001) |
| --- | --- | --- |
| insulin glargine | 3.64 |  |
| human insulin |  | approximately 35 μg |
| insulin detemir [insulin determir] | 14.2 |  |
| insulin aspart | 3.5 |  |
| insulin lispro | 3.5 |  |
| insulin glulisine | 3.49 |  |
